Measured values from patent US9284333B2, “Fused pyrroledicarboxamides and their use as pharmaceuticals” (SANOFI, priority 2012, dated 2016).

What follows are compounds tested against Human TASK-1 channels (Homo sapiens (Human), UniProt O14649) (assay: Determination of the activity on the TASK-1 channel in Xenopus oocytes (two-microelectrode voltage clamp)). Conditions: human TASK-1 expressed in Xenopus oocytes, room temperature; read-out: IC50 value for TASK-1 inhibition.
Human TASK-1 channels, sequence (O14649 whole entry): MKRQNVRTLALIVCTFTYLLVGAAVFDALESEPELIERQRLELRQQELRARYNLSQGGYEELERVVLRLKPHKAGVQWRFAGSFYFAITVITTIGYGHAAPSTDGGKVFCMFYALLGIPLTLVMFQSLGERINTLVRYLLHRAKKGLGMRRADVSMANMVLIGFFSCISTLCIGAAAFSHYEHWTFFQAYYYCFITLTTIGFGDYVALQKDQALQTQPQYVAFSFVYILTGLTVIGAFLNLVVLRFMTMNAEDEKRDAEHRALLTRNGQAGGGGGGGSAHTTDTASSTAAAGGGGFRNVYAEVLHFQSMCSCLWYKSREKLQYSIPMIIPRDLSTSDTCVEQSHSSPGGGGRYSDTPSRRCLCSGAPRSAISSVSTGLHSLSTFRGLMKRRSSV
Format: cell-based
How it was run: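 Current during 500 ms pulses to 40 mV from a −90 mV hold was recorded in oocytes expressing human TASK-1 for two days after cRNA injection. Compounds were added cumulatively to the ND96 bath (pH 7.4, room temperature). IC50 came from dose-response fitting of inhibition relative to pre-compound current.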
`CC[C@H](NC(=O)c1cc(C(=O)N[C@H](CC)c2ccccc2)c2n1CCOC2)c1ccc(OC)nc1` [16hp, 3,4-Dihydro-1H-pyrrolo[2,1-c][1,4]oxazine-6,8-dicarboxylic acid 6-{[(S)-1-(6-methoxy-pyridin-3-yl)-propyl]-amide} 8-[((R)-1-phenyl-propyl)-amide]] gave an IC50 of 560 nM. In the case of `CC[C@@H](NC(=O)c1cc(C(=O)N[C@@H](C)c2ccc(F)cc2)n2c1CCCC2)c1ccccc1` [16lt, 5,6,7,8-Tetrahydro-indolizine-1,3-dicarboxylic acid 3-{[(S)-1-(4-fluoro-phenyl)-ethyl]-amide} 1-[((R)-1-phenyl-propyl)-amide]], the IC50 is reported as 58 nM. For `CC[C@@H](NC(=O)c1cc(C(=O)NCc2ccccc2C#N)n2c1COCC2)c1ccccc1` [16gy, 3,4-Dihydro-1H-pyrrolo[2,1-c][1,4]oxazine-6,8-dicarboxylic acid 6-(2-cyano-benzylamide) 8-[((R)-1-phenyl-propyl)-amide]], the IC50 was 320 nM. For `CC[C@@H](NC(=O)c1cc(C(=O)N2[C@@H](COC)CC[C@@H]2COC)n2c1COCC2)c1ccccc1` [16ep, 6-((2R,5R)-2,5-Bis-methoxymethyl-pyrrolidine-1-carbonyl)-3,4-dihydro-1H-pyrrolo[2,1-c][1,4]oxazine-8-carboxylic acid ((R)-1-phenyl-propyl)-amide], the IC50 was 820 nM. `O=C(N[C@@H](c1ccc(F)cc1)C1CC1)c1cc(C(=O)N2CCCC2)n2c1COCC2` [16dg, 6-(Pyrrolidine-1-carbonyl)-3,4-dihydro-1H-pyrrolo[2,1-c][1,4]oxazine-8-carboxylic acid [(R)-cyclopropyl-(4-fluoro-phenyl)-methyl]-amide] gave an IC50 of 300 nM. With `CC[C@H](NC(=O)c1cc(C(=O)N[C@H](C)c2ccc(F)cc2)n2c1COCC2)c1ncc(C(F)(F)F)cn1` [16ee, 3,4-Dihydro-1H-pyrrolo[2,1-c][1,4]oxazine-6,8-dicarboxylic acid 6-{[(R)-1-(4-fluoro-phenyl)-ethyl]-amide} 8-{[(S)-1-(5-trifluoromethyl-pyrimidin-2-yl)-propyl]-amide}] the IC50 was 350 nM. In the case of `CC[C@@H](NC(=O)c1cc(C(=O)N2CCC(c3ccccc3)C2)n2c1CCCC2)c1ccccc1` (stereo partly drawn) [16ms, 3-(3-Phenyl-pyrrolidine-1-carbonyl)-5,6,7,8-tetrahydro-indolizine-1-carboxylic acid ((R)-1-phenyl-propyl)-amide], the IC50 is reported as 550 nM. In the case of `CC[C@H]1CCCN1C(=O)c1cc(C(=O)N[C@H](CC)c2ccccc2)c2n1CCOC2` (racemic) [16fc, 6-((S)-2-Ethyl-pyrrolidine-1-carbonyl)-3,4-dihydro-1H-pyrrolo[2,1-c][1,4]oxazine-8-carboxylic acid ((R)-1-phenyl-propyl)-amide], the IC50 is reported as 25 nM. With `CC[C@@H](NC(=O)c1cc(C(=O)N[C@H](CC)c2cccc(C(=O)O)c2)n2c1COCC2)c1ccccc1` [16rm, 3-((R)-1-{[8-((R)-1-Phenyl-propylcarbamoyl)-3,4-dihydro-1H-pyrrolo[2,1-c][1,4]oxazine-6-carbonyl]-amino}-propyl)-benzoic acid] the IC50 was 4900 nM. Compound `CC[C@@H](NC(=O)c1cc(C(=O)NC(C)c2nnn(CC)n2)n2c1COCC2)c1ccccc1` (stereo partly drawn) [16rq, 3,4-Dihydro-1H-pyrrolo[2,1-c][1,4]oxazine-6,8-dicarboxylic acid 6-{[1-(2-ethyl-2H-tetrazol-5-yl)-ethyl]-amide} 8-[((R)-1-phenyl-propyl)-amide]] has an IC50 of 750 nM. `CC[C@@H](NC(=O)c1cc(C(=O)N[C@H](CC)c2cccc(O)c2)n2c1COCC2)c1ccccc1` [16ix, 3,4-Dihydro-1H-pyrrolo[2,1-c][1,4]oxazine-6,8-dicarboxylic acid 6-{[(R)-1-(3-hydroxy-phenyl)-propyl]-amide} 8-[((R)-1-phenyl-propyl)-amide]] was tested, and the IC50 was 360 nM. In the case of `CC[C@@H](NC(=O)c1cc(C(=O)NC(C)c2cnccn2)c2n1CCOC2)c1ccc(F)cc1F` (single isomer, unassigned) [16pk], the IC50 is reported as 190 nM. Work on `CC[C@@H](NC(=O)c1cc(C(=O)N[C@H](CO)C(C)C)n2c1COCC2)c1ccccc1` [16iz, 3,4-Dihydro-1H-pyrrolo[2,1-c][1,4]oxazine-6,8-dicarboxylic acid 6-[((S)-1-hydroxymethyl-2-methyl-propyl)-amide] 8-[((R)-1-phenyl-propyl)-amide]] yielded an IC50 of 1900 nM. In the case of `CC[C@@H](NC(=O)c1cc(C(=O)N2CCC[C@@H]2C(F)(F)F)n2c1COCC2)c1ccc(C(F)(F)F)nc1` [16o, 6-((R)-2-Trifluoromethyl-pyrrolidine-1-carbonyl)-3,4-dihydro-1H-pyrrolo[2,1-c][1,4]oxazine-8-carboxylic acid [(R)-1-(6-trifluoromethyl-pyridin-3-yl)-propyl]-amide], the IC50 is reported as 410 nM. Work on `CCC(NC(=O)c1cc(C(=O)N[C@H](CC)c2ccccc2)c2n1CCOC2)c1cccc(S(N)(=O)=O)c1` (stereo partly drawn) [16ji, 3,4-Dihydro-1H-pyrrolo[2,1-c][1,4]oxazine-6,8-dicarboxylic acid 8-[((R)-1-phenyl-propyl)-amide] 6-{[1-(3-sulfamoyl-phenyl)-propyl]-amide}] yielded an IC50 of 1900 nM. With `CC[C@@H](NC(=O)c1cc(C(=O)N2CCC[C@@H]2C)n2c1COCC2)c1ncc(C(F)(F)F)cn1` [16bh, 6-((S)-2-Methyl-pyrrolidine-1-carbonyl)-3,4-dihydro-1H-pyrrolo[2,1-c][1,4]oxazine-8-carboxylic acid [(R)-1-(5-trifluoromethyl-pyrimidin-2-yl)-propyl]-amide] the IC50 was 920 nM. In the case of `CC[C@@H](NC(=O)c1cc(C(=O)N2CCC[C@@H]2C)c2n1CCOC2)c1ccccc1Cl` [16nh, 8-((S)-2-Methyl-pyrrolidine-1-carbonyl)-3,4-dihydro-1H-pyrrolo[2,1-c][1,4]oxazine-6-carboxylic acid [(R)-1-(2-chloro-phenyl)-propyl]-amide], the IC50 is reported as 90 nM. Compound `CC[C@@H](NC(=O)c1cc(C(=O)N2CCC[C@@H]2C)n2c1C(C)OCC2)c1ccccc1` (stereo partly drawn) [16lf, 1-Methyl-6-((S)-2-methyl-pyrrolidine-1-carbonyl)-3,4-dihydro-1H-pyrrolo[2,1-c][1,4]oxazine-8-carboxylic acid ((R)-1-phenyl-propyl)-amide] has an IC50 of 110 nM. With `CC[C@@H](NC(=O)c1cc(C(=O)N2CCC[C@@H]2C)n2c1COCC2)c1ccccc1C(F)(F)F` [16s, 6-((S)-2-Methyl-pyrrolidine-1-carbonyl)-3,4-dihydro-1H-pyrrolo[2,1-c][1,4]oxazine-8-carboxylic acid [(R)-1-(2-trifluoromethyl-phenyl)-propyl]-amide] the IC50 was 250 nM. `CC[C@@H](NC(=O)c1cc(C(=O)N[C@H](CC)c2ccc(F)cc2)n2c1C(C)OCC2)c1ccccc1` (some centres unmarked) [16lh] gave an IC50 of 190 nM. `CC[C@@H](NC(=O)c1cc(C(=O)NCC(C)(C)C)n2c1COCC2)c1ccccc1` [16go, 3,4-Dihydro-1H-pyrrolo[2,1-c][1,4]oxazine-6,8-dicarboxylic acid 6-[(2,2-dimethyl-propyl)-amide] 8-[((R)-1-phenyl-propyl)-amide]] showed an IC50 of 900 nM. With `CC[C@@H](NC(=O)c1cc(C(=O)NCC2CC2)n2c1CCCC2)c1ccccc1` [16mf, 5,6,7,8-Tetrahydro-indolizine-1,3-dicarboxylic acid 3-cyclopropylmethyl-amide 1-[((R)-1-phenyl-propyl)-amide]] the IC50 was 260 nM. Compound `CC(NC(=O)c1cc(C(=O)N[C@@H](c2ccc(F)cc2)C(C)C)n2c1COCC2)c1ccno1` (stereo partly drawn) [16lk, 3,4-Dihydro-1H-pyrrolo[2,1-c][1,4]oxazine-6,8-dicarboxylic acid 6-{[(R)-1-(4-fluoro-phenyl)-2-methyl-propyl]-amide} 8-[(1-isoxazol-5-yl-ethyl)-amide]] has an IC50 of 310 nM.
